Read-outs that look alike come from different tables or passages of the source.

This note sets out measurements from article PMC6199744, “Development of Chemical Proteomics for the Folateome and Analysis of the Kinetoplastid Folateome” (ACS Infectious Diseases, 2018).

Holding throughout (assay type): binding
For assay [1], the target named is T1, HeLa cell extract proteins (Homo sapiens, UniProt P31943).
T1 construct: endogenous in cells; host or cells: HeLa cell extract
T1 sequence (P31943 1-449): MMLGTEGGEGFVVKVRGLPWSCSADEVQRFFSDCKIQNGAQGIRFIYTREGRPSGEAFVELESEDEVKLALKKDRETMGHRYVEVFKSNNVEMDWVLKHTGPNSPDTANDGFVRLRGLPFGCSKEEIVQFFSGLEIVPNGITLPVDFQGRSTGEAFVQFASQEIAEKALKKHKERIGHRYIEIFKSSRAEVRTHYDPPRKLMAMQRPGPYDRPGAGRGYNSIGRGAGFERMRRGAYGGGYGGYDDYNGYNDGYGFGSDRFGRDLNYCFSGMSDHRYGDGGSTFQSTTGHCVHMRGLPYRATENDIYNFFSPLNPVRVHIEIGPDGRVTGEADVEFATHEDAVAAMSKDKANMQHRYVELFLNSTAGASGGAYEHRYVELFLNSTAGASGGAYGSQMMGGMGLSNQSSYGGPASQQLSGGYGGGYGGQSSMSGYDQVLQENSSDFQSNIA

For assay [2], the target named is T2, HeLa cell extract proteins (Homo sapiens, UniProt P34897).
T2 construct: endogenous in cells; host or cells: HeLa cell extract
T2 sequence (P34897 30-504): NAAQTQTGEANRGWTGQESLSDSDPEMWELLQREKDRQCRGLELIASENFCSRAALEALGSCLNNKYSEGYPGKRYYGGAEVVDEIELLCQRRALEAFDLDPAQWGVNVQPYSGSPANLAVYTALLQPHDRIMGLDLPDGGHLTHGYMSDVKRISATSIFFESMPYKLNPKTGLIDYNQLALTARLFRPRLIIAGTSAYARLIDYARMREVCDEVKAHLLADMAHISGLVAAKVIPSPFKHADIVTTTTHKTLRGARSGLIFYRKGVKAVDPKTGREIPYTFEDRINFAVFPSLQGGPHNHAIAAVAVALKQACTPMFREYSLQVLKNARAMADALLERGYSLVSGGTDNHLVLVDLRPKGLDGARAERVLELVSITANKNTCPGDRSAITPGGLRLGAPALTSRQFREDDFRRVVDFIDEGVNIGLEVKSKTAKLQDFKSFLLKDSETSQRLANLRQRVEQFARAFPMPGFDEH

For assay [3], the target named is T3, HeLa cell extract proteins (Homo sapiens, UniProt P52209).
T3 construct: endogenous in cells; host or cells: HeLa cell extract
T3 sequence (P52209 1-483): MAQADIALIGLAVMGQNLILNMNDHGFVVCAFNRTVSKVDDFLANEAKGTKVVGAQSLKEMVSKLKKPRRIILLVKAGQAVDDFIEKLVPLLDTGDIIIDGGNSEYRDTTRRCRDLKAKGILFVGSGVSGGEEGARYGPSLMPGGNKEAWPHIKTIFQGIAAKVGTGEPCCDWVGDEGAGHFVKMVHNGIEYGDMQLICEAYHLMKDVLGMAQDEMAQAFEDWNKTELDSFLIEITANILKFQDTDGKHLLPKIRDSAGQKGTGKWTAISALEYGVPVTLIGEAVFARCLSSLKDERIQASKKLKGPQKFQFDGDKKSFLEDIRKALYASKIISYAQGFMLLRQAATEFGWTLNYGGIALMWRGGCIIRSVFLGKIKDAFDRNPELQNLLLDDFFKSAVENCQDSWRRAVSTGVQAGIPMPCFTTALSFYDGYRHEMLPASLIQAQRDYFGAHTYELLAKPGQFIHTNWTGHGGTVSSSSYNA

Assay [4] deals with T4, HeLa cell extract proteins (Homo sapiens, UniProt P52789).
T4 construct: endogenous in cells; host or cells: HeLa cell extract
T4 sequence (P52789 1-917): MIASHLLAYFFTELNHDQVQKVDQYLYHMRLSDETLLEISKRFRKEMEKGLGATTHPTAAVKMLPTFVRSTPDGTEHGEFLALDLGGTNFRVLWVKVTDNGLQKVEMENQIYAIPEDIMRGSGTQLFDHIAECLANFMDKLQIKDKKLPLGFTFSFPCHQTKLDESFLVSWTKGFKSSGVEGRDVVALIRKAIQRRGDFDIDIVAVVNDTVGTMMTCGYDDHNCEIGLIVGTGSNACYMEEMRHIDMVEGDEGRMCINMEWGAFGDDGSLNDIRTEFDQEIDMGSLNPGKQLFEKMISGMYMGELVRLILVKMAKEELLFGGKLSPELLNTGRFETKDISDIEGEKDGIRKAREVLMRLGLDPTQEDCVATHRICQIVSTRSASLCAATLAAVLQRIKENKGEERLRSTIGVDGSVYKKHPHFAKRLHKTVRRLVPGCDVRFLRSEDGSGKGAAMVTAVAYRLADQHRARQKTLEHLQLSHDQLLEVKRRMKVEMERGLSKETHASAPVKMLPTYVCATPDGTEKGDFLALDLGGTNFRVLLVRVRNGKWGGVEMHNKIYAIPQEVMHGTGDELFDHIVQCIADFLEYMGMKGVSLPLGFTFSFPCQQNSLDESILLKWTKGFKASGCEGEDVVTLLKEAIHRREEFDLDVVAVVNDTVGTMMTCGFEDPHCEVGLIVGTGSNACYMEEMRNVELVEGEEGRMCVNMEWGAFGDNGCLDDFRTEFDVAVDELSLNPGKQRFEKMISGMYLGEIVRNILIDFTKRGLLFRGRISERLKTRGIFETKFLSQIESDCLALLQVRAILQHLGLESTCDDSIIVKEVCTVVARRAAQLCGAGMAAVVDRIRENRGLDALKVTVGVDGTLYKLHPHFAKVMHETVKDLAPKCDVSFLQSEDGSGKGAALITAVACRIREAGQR

Assay [5] deals with T5, HeLa cell extract proteins (Homo sapiens, UniProt P57088).
T5 construct: endogenous in cells; host or cells: HeLa cell extract
T5 sequence (P57088 1-247): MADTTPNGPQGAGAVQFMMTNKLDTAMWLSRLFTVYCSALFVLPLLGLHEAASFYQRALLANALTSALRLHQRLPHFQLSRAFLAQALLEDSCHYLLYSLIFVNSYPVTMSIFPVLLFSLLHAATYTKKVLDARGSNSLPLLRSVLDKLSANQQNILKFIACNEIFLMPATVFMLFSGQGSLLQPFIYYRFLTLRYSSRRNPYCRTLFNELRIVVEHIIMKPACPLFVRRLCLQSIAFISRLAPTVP

Assay [6] concerns the target T6, HeLa cell extract proteins (Homo sapiens, UniProt Q13409).
T6 construct: endogenous in cells; host or cells: HeLa cell extract

For assay [7], the target named is T7, HeLa cell extract proteins (Homo sapiens, UniProt Q5R3I4).
T7 construct: endogenous in cells; host or cells: HeLa cell extract
T7 sequence (Q5R3I4 whole entry): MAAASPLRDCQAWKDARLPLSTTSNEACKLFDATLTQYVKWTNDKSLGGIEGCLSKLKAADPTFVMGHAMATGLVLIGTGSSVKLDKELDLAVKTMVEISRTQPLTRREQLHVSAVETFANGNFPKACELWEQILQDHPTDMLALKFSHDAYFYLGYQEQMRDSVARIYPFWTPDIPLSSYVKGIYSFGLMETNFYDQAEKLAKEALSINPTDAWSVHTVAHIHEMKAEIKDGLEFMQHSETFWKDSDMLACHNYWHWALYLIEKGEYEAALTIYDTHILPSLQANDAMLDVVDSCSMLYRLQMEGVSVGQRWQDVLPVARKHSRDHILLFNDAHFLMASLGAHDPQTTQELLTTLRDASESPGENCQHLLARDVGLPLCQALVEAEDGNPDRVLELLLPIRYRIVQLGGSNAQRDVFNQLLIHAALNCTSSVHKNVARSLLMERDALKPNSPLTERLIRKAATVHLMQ

Setting [8] is: HeLa, protein PGD (56 KDA PROTEIN.).
Where [9] appears, read: HeLa, protein TTC38 (HYPOTHETICAL PROTEIN LOC55020).

T6 sequence (Q13409 whole entry): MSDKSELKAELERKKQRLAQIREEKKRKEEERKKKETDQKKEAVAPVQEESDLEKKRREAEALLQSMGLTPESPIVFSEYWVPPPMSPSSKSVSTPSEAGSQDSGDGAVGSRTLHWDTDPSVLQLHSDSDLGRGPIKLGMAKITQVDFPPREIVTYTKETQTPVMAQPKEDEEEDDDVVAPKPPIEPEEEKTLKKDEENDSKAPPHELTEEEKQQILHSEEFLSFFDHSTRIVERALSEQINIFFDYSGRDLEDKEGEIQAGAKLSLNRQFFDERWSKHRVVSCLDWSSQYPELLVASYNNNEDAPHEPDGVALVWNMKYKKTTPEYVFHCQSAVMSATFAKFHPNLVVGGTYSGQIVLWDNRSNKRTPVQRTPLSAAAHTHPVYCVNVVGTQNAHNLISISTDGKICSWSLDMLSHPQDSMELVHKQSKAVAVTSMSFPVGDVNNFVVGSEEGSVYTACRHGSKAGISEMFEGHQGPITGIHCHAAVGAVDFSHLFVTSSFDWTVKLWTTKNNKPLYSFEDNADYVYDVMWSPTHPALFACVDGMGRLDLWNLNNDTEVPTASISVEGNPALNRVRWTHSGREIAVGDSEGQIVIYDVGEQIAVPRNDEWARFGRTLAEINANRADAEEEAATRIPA

Consider `Nc1nc2c(c(=O)[nH]1)N(C=O)C(CNc1ccc(C(=O)N[C@@H](CCC(=O)O)C(=O)O)cc1)CN2` (stereo partly shown) [LEU, leucovorin], for which the “fold changes relative to vehicle control” value in assay [1] (HeLa, captured protein HNRNPH1) stood at 0.96; in assay [2] (HeLa, protein SHMT2), 1.01; in assay [3] (protein PGD, HeLa), 0.97; in assay [4] (HeLa, protein HK2) it was 1; in assay [5] (HeLa, protein TMEM33), 0.88; in assay [6] (HeLa, protein DYNC1I2), 0.9. In addition, in assay [7] (HeLa, protein TTC38 (HY[…] LOC55020)), the “fold changes relative to vehicle control” value was 1.03.

For the molecule `Nc1nc2[nH]cc(CCc3ccc(C(=O)N[C@@H](CCC(=O)O)C(=O)O)cc3)c2c(=O)[nH]1` [PTX, pemetrexed], the “fold changes relative to vehicle control” value is recorded as 0.86 in assay [1]; 1.13 in assay [2]; 1.17 in assay [3]; 1.02 in assay [4]; 0.96 in assay [5]; 0.94 in assay [6]. The “fold changes relative to vehicle control” value in assay [7] is on record as 0.93.

Take `CCCCCCOc1ccc(Cc2cnc(N)nc2N)cc1` [compound 1]: the “fold changes relative to vehicle control” value in assay [1] (HeLa, protein HNRNPH1) turned out to be 0.96; in assay [2] (HeLa, protein SHMT2) it was 0.8; in assay [3] (setting [8]) it was 1.44 fold; in assay [4] (protein HK2, HeLa) it was 1.11; in assay [5] (captured protein TMEM33, HeLa), 0.86; in assay [6] (HeLa, protein DYNC1I2) it was 0.88. The “fold changes relative to vehicle control” value in assay [7] (HeLa, protein TTC38) turned out to be 1.

Consider `CCCCCCOc1cccc(Cc2cnc(N)nc2N)c1` [compound 2], for which the “fold changes relative to vehicle control” value in assay [1] (HeLa, protein HNRNPH1) amounted to 1.02; in assay [2] (HeLa, protein SHMT2), 1.53; in assay [3] (setting [8]), 2.49 fold; in assay [4] (protein HK2, HeLa), 1.43; in assay [5] (captured protein TMEM33, HeLa), 0.93; in assay [6] (HeLa, protein DYNC1I2), 1.13. Also, the “fold changes relative to vehicle control” value in assay [7] (HeLa, protein TTC38) is on record as 0.68.

For `Nc1nc2cccc(-c3ccccc3)c2n1Cc1ccc(Cl)c(Cl)c1` [compound 3], the “fold changes relative to vehicle control” value in assay [1] (HeLa, protein HNRNPH1) came to 1; in assay [2] (HeLa, protein SHMT2), 0.92; in assay [3] (setting [8]) it was 0.86 fold; in assay [4] (protein HK2, HeLa), 0.9; in assay [5] (captured protein TMEM33, HeLa), 1.14; in assay [6] (HeLa, protein DYNC1I2), 0.89. Further, the “fold changes relative to vehicle control” value in assay [7] (HeLa, protein TTC38) is listed as 1.

In the case of `NCCOCCOCC(=O)Nc1nc2ncc(CNc3ccc(C(=O)NC(CCC(=O)O)C(=O)O)cc3)nc2c(=O)[nH]1` (stereo not shown) [compound 6], the “fold changes relative to vehicle control” value in assay [1] (HeLa, captured protein HNRNPH1) was 0.84; in assay [2] (HeLa, protein SHMT2) it was 1.3; in assay [3] (protein PGD, HeLa) it was 1.35; in assay [4] (HeLa, protein HK2) it was 1.21; in assay [5] (HeLa, protein TMEM33), 1; in assay [6] (HeLa, protein DYNC1I2), 0.93. Also, the “fold changes relative to vehicle control” value in assay [7] (setting [9]) worked out at 0.89.

Take `NCCCNc1ccc(C(=O)NC(CCC(=O)O)C(=O)O)cc1` (stereo not shown) [compound 7]: the “fold changes relative to vehicle control” value in assay [1] (HeLa, captured protein HNRNPH1) was determined as 0.92; in assay [2] (HeLa, protein SHMT2) it was 1.02; in assay [3] (protein PGD, HeLa), 0.86; in assay [4] (HeLa, protein HK2), 1.03; in assay [5] (HeLa, protein TMEM33), 1.03; in assay [6] (HeLa, protein DYNC1I2), 0.95. The “fold changes relative to vehicle control” value in assay [7] (setting [9]) came to 0.99.
